US12053454B2, “Compositions for cryopreservation and methods of use thereof” (EVERGREEN BIOSCIENCES, priority 2017, dated 2024)

Assays:
[1] = tested on: stem cells (motor neuron precursors); test: Motor neuron identity (CHAT1) after freezing of stem cells; type: cell-based; details: frozen in solutions comprising 0.01 μM cyspA, or 20 nM Nec1, or 5 nM iMAC2; vs frozen in the absence of these compounds
From the text: Cellular freeze/thaw cycle causes stem cells to lose their identity, as measured by the level of CHAT1 in motor neurons. […] As shown here (FIG. 3), each of cyspA, Nec1, and IMAC2 provided cryoprotection to stem cells upon freezing, maintaining cellular characteristics. Cryoprotectants in solution used to freeze the cells, maintained motor neuron identity, as measure by the level of CHAT1.

[2] = tested on: primary mouse cortical neuron cells; test: Viability after freeze/thaw in solutions comprising different necrostatins; type: cell-based; details: necrostatin 20 nM with other components of the soln unchanged; vs vehicle cryopreserved with 10% DMSO
From the text: Several analogs of necrostatins were studied and found to work similarly in their cryoprotective effect after freeze/thaw.

SMILES	CHAT1 levels [1]	percent viability [2]
Cl.Cl.OC(CN1CCNCC1)Cn1c2ccc(Br)cc2c2cc(Br)ccc21 (centres unmarked) [iMAC2, 3,6-Dibromo-a-(1-piperazinylmethyl)-9H-carbazole-9-ethanol dihydrochloride]	maintained CHAT1 levels	
COc1ccc2c(c1)C1=NN(C(C)=O)C(c3ccc(F)cc3)C1CC2 (centres unmarked) [Nec3]		significantly enhanced percent viability
